Data as given in paper PMC11590367, “Characterization of novel small molecule inhibitors of estrogen receptor-activation function 2 (ER-AF2)” (Breast Cancer Research : BCR, 2024).

Molecular target: T1, full length ERɑ protein, estrogen binding site (EBS) (Homo sapiens, UniProt P03372)
T1 construct: full length ERɑ protein was incubated with Fluormone ES2 Green; purchased ThermoFisher A15882
Assay: E2-displacement assay (PolarScreen fluorescence polarization)
Settings: fluorescence polarization, 1, 10 and 50 µM
Protocol: The E2 displacement assay was performed using the PolarScreen Estrogen Receptor Alpha Competitor Assay, Green (ThermoFisher A15882) according to the manufacturer’s protocol. In brief, full length ERɑ protein was incubated with Fluormone ES2 Green (Fluormone Tracer) in the ES2 screening buffer in a black bottom 384-well plate (Corning 3573) in the presence of either 1, 10, or 50 µM of test compounds. The final concentrations in the assay were 2% DMSO (consistent with the MST assay), 4.5 nM fluormone, and 40 nM ERɑ protein. 20 µl of the mixture were added to each well, with triplicates performed for each condition. The plate was incubated in the dark at room temperature for 4 h before fluorescence polarization was measured using a Synergy Neo2 plate reader (BioTek).

T1 sequence (P03372 whole entry): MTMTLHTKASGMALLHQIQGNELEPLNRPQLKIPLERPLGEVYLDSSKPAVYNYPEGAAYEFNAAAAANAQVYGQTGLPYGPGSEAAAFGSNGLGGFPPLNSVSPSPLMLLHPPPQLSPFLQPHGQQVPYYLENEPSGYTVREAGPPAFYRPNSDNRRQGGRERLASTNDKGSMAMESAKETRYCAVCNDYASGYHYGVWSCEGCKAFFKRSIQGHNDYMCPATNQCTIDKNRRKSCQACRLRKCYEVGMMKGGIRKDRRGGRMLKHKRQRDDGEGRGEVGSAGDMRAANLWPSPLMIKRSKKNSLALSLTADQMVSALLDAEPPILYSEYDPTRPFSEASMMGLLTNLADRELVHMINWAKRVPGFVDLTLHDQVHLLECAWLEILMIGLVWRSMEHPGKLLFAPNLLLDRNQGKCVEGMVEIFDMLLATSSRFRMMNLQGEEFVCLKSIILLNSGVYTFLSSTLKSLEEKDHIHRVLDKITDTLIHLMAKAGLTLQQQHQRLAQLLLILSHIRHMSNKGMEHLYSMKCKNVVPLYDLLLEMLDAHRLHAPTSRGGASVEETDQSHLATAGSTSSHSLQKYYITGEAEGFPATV

Cc1cccn2c(CNCc3cccc(N(C)C)n3)cnc12 [VPC-260724]
Displacement of fluormone (fluorescent E2) from EBS: did not displace the fluormone at any of the tested concentrations
